From ChEMBL document CHEMBL3044842, “Composition and antifungal activity on soil-borne pathogens of the essential oil of Salvia sclarea from Greece” (J Agric Food Chem, 2002)

Key:
Format in all cases: functional, organism-based
Sclerotinia sclerotiorum = assay: Antifungal activity against Sclerotinia sclerotiorum after 4 days
[1] = system: Fusarium oxysporum f. sp. dianthi; assay: Antifungal activity against Fusarium oxysporum f. sp. dianthi after 4 days
Stromatinia cepivora = assay: Antifungal activity against Sclerotium cepivorum after 4 days

| Structure (SMILES) | EC50 (Sclerotinia sclerotiorum) [uL/L] | EC50 [1] [uL/L] | EC50 (Stromatinia cepivora) [uL/L] |
| --- | --- | --- | --- |
| C=CC(C)(O)CCC=C(C)C (stereo unspecified) [LINALOOL] | 146.15 | 661.76 | 563.94 |
| C=CC(C)(CCC=C(C)C)OC(C)=O (stereo unspecified) [LINALYL ACETATE] | 549.62 | > 1500 | > 1500 |
